Like-named read-outs stand apart in the source and are kept apart here.
Key:
Assay in all cases: biochemical
Assay type in all cases: biochemical
[1] = molecular target: T1, 382 unique human kinases (Homo sapiens, UniProt P10721, K642E); conditions: kinase c-Kit (K642E), compound 10 uM; for remaining activity at 10 µM: read-out: % Enzyme Activity (relative to DMSO controls)
T1 construct: purchased Reaction Biology (HotSpot contract assay)

[2] = molecular target: T2, 382 unique human kinases (Homo sapiens, UniProt Q96QT4); conditions: kinase TRPM7/CHAK1, compound 10 uM; for remaining activity at 10 µM: read-out: % Enzyme Activity (relative to DMSO controls)
T2 construct: purchased Reaction Biology (HotSpot contract assay)

[3] = molecular target: T3, 382 unique human kinases (Homo sapiens, UniProt O43781); conditions: DYRK3, 10 uM; for remaining activity at 10 µM: read-out: % Enzyme Activity (relative to DMSO controls)
T3 construct: purchased Reaction Biology (HotSpot contract assay)
T3 sequence (O43781 1-588): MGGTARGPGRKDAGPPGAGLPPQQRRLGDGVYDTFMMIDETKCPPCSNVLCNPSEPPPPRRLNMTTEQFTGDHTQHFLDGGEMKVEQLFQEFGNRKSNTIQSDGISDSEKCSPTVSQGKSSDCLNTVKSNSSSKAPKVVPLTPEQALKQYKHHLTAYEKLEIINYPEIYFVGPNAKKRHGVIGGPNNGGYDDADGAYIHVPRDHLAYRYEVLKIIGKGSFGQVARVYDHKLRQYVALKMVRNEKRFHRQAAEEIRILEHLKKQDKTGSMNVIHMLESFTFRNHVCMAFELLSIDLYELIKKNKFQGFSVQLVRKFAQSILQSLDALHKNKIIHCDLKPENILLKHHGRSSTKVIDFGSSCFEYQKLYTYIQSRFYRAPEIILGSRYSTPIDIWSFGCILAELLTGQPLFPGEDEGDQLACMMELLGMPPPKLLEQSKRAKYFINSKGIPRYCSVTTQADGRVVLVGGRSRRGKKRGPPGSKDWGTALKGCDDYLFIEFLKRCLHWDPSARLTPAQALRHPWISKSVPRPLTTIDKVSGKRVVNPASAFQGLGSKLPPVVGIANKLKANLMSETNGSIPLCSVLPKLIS

[4] = molecular target: T4, 382 unique human kinases (Homo sapiens, UniProt P10721); conditions: c-Kit, 10 uM; for remaining activity at 10 µM: read-out: % Enzyme Activity (relative to DMSO controls)
T4 construct: purchased Reaction Biology (HotSpot contract assay)
T4 sequence (P10721 26-976): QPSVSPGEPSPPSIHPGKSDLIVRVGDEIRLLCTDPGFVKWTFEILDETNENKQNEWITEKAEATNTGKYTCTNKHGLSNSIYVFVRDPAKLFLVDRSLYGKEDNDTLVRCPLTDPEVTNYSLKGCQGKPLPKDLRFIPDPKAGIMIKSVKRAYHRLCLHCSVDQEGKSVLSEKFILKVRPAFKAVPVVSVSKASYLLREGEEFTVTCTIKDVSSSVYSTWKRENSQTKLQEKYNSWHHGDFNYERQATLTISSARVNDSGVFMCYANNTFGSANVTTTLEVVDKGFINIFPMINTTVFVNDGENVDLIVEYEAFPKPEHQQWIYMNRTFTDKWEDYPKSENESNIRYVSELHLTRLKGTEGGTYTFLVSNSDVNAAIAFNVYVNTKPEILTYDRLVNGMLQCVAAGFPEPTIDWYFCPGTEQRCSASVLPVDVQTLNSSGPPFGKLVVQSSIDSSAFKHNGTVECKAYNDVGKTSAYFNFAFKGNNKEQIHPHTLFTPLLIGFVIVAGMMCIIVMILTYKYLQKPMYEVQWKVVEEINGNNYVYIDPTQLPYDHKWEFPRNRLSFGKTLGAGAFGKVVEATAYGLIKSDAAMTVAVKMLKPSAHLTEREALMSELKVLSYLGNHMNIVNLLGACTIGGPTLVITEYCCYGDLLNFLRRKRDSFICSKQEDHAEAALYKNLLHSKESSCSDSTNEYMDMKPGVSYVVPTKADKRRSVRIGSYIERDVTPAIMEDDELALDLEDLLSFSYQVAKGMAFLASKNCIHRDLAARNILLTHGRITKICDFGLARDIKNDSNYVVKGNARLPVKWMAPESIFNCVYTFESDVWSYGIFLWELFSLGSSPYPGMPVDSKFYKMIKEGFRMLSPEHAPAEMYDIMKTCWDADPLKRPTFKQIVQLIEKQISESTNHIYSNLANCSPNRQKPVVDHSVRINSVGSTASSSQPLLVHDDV

[5] = molecular target: T5, 382 unique human kinases (Homo sapiens, UniProt Q9UPE1); conditions: MSSK1/STK23, 10 uM; for remaining activity at 10 µM: read-out: % Enzyme Activity (relative to DMSO controls)
T5 construct: purchased Reaction Biology (HotSpot contract assay)
T5 sequence (Q9UPE1 whole entry): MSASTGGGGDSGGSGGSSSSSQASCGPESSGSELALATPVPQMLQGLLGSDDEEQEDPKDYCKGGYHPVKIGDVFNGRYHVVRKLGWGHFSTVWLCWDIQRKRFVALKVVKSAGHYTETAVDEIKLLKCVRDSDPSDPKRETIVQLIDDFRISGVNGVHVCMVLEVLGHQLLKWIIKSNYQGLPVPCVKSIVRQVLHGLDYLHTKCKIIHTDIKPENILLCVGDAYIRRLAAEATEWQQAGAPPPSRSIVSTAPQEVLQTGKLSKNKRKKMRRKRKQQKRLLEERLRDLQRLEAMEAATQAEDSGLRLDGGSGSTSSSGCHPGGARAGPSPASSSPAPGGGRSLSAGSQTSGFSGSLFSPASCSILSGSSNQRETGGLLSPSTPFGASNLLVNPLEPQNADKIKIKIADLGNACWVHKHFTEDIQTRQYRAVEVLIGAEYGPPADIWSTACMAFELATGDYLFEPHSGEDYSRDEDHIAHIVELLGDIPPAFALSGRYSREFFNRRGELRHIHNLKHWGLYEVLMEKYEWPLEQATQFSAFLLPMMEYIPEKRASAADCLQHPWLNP

[6] = molecular target: T6, 382 unique human kinases (Homo sapiens, UniProt P10721, T670I/V559D); conditions: c-Kit (V559D/T670I), 10 uM; for remaining activity at 10 µM: read-out: % Enzyme Activity (relative to DMSO controls)
T6 construct: purchased Reaction Biology (HotSpot contract assay)
T6 sequence (P10721 26-976 V559D/T670I): as the sequence (P10721 26-976) above, with V534D, T645I counted along it

[7] = molecular target: T7, 382 unique human kinases (Homo sapiens, UniProt Q8IU85); conditions: kinase CAMK1d, compound 10 uM; for remaining activity at 10 µM: read-out: % Enzyme Activity (relative to DMSO controls)
T7 construct: purchased Reaction Biology (HotSpot contract assay)

[8] = molecular target: T8, 382 unique human kinases (Homo sapiens, UniProt Q9P0L2); conditions: MARK1, compound at 10 uM, duplicate values; for remaining activity at 10 µM: read-out: % Enzyme Activity (relative to DMSO controls)
T8 construct: purchased Reaction Biology (HotSpot contract assay)
T8 sequence (Q9P0L2 whole entry): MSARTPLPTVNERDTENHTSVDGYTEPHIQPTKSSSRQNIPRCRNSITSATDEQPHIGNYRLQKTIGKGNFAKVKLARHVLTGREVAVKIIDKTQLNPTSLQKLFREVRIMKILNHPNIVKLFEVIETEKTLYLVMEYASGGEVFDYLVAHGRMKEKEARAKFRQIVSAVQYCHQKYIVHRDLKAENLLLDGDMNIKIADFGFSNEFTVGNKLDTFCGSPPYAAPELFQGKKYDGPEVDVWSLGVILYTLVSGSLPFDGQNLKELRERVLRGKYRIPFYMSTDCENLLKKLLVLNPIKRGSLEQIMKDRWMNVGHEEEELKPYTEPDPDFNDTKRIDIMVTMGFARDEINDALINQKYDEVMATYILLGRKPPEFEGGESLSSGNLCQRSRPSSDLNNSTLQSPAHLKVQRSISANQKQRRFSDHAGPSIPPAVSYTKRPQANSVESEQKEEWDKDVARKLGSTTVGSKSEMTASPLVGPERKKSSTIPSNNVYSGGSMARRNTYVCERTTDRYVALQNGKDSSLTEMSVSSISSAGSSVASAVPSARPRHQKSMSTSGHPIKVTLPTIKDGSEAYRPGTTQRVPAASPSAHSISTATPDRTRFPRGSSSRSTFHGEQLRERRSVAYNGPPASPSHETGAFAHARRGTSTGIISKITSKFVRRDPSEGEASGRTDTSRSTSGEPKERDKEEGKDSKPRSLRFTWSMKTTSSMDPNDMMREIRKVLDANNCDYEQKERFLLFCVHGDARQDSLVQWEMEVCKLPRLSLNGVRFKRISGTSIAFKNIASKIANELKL

[9] = molecular target: T9, 382 unique human kinases (Homo sapiens, UniProt P06493); conditions: for remaining activity at 10 µM: read-out: % Enzyme Activity (relative to DMSO controls)
T9 construct: purchased Reaction Biology (HotSpot contract assay)
T9 sequence (P06493 whole entry): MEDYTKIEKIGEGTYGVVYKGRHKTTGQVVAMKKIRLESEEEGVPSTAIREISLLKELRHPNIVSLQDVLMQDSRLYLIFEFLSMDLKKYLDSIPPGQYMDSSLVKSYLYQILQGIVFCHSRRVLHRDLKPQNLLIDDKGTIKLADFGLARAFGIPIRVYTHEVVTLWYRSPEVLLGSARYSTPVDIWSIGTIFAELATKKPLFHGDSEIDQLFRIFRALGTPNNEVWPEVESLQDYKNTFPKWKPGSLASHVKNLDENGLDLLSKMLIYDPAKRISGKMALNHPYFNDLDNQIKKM

[10] = molecular target: T10, 382 unique human kinases (Homo sapiens, UniProt O00311); conditions: kinase CDC7/DBF4, compound 10 uM; for remaining activity at 10 µM: read-out: % Enzyme Activity (relative to DMSO controls)
T10 construct: purchased Reaction Biology (HotSpot contract assay)
T10 sequence (O00311 whole entry): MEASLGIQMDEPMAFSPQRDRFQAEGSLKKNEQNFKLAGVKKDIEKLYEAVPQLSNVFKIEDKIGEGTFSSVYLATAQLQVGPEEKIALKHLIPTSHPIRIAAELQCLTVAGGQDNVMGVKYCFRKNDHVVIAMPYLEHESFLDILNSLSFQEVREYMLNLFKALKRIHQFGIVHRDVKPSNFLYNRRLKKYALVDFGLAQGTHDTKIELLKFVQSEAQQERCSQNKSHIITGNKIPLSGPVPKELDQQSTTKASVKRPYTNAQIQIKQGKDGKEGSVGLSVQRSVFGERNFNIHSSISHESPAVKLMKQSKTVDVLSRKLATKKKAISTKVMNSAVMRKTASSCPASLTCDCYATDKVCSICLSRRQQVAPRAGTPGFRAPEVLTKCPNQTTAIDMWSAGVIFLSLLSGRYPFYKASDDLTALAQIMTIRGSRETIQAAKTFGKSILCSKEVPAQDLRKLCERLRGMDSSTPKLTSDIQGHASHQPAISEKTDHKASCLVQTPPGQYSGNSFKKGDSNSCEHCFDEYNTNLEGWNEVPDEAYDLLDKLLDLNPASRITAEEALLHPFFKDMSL

[11] = molecular target: T11, 382 unique human kinases (Homo sapiens, UniProt Q06187, C481S); conditions: BTK (C481S), [ATP] 15 µM, compound 10 uM; for remaining activity at 10 µM: read-out: % Enzyme Activity (relative to DMSO controls)
T11 construct: purchased Reaction Biology (HotSpot contract assay)
T11 sequence (Q06187 whole entry C481S): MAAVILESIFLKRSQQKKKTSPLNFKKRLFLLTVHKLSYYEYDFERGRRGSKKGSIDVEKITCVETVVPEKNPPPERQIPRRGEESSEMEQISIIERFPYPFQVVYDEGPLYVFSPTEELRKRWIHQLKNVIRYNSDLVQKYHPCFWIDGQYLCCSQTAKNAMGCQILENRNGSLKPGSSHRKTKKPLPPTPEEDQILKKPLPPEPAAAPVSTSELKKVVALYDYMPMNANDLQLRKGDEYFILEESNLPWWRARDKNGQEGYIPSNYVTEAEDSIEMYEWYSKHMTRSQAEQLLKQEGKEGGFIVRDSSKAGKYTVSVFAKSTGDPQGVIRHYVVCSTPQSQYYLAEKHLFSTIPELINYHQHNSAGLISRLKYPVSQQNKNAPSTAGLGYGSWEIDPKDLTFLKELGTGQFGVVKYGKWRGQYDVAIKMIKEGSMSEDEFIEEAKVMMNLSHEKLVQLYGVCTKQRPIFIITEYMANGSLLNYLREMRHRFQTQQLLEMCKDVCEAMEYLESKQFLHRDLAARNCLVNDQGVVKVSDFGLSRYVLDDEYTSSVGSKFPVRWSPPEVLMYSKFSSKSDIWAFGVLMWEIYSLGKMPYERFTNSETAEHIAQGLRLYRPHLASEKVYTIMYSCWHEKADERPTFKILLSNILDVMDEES

[12] = molecular target: T12, 382 unique human kinases (Homo sapiens, UniProt Q9H0K1); conditions: SIK2, [ATP] 30 µM
T12 construct: purchased Reaction Biology (HotSpot contract assay)

[13] = molecular target: T13, 382 unique human kinases (Homo sapiens, UniProt P78368); conditions: CK1g2, 10 uM; for remaining activity at 10 µM: read-out: % Enzyme Activity (relative to DMSO controls)
T13 construct: purchased Reaction Biology (HotSpot contract assay)

[14] = molecular target: T14, 382 unique human kinases (Homo sapiens, UniProt P05771); conditions: PKCb1, 10 uM; for remaining activity at 10 µM: read-out: % Enzyme Activity (relative to DMSO controls)
T14 construct: purchased Reaction Biology (HotSpot contract assay)

[15] = molecular target: T15, 382 unique human kinases (Homo sapiens, UniProt Q9HC98); conditions: NEK6, 10 uM; for remaining activity at 10 µM: read-out: % Enzyme Activity (relative to DMSO controls)
T15 construct: purchased Reaction Biology (HotSpot contract assay)

[16] = molecular target: T16, 382 unique human kinases (Homo sapiens, UniProt O14965); conditions: Aurora A, [ATP] 2.5 µM, compound 10 uM; for remaining activity at 10 µM: read-out: % Enzyme Activity (relative to DMSO controls)
T16 construct: purchased Reaction Biology (HotSpot contract assay)
T16 sequence (O14965 1-403): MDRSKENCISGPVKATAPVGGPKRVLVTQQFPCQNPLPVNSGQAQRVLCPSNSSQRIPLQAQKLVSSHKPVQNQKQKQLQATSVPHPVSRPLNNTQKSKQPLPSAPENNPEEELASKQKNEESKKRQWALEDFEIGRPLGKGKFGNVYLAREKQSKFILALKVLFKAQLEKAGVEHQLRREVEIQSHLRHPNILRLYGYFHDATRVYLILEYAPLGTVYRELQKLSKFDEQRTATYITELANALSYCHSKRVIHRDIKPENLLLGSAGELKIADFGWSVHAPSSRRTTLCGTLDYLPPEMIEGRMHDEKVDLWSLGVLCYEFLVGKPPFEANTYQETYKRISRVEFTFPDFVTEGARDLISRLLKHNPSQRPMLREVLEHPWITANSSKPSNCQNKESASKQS

[17] = molecular target: T17, 382 unique human kinases (Homo sapiens, UniProt P80192); conditions: MLK1/MAP3K9, 10 uM; for remaining activity at 10 µM: read-out: % Enzyme Activity (relative to DMSO controls)
T17 construct: purchased Reaction Biology (HotSpot contract assay)
T17 sequence (P80192 whole entry): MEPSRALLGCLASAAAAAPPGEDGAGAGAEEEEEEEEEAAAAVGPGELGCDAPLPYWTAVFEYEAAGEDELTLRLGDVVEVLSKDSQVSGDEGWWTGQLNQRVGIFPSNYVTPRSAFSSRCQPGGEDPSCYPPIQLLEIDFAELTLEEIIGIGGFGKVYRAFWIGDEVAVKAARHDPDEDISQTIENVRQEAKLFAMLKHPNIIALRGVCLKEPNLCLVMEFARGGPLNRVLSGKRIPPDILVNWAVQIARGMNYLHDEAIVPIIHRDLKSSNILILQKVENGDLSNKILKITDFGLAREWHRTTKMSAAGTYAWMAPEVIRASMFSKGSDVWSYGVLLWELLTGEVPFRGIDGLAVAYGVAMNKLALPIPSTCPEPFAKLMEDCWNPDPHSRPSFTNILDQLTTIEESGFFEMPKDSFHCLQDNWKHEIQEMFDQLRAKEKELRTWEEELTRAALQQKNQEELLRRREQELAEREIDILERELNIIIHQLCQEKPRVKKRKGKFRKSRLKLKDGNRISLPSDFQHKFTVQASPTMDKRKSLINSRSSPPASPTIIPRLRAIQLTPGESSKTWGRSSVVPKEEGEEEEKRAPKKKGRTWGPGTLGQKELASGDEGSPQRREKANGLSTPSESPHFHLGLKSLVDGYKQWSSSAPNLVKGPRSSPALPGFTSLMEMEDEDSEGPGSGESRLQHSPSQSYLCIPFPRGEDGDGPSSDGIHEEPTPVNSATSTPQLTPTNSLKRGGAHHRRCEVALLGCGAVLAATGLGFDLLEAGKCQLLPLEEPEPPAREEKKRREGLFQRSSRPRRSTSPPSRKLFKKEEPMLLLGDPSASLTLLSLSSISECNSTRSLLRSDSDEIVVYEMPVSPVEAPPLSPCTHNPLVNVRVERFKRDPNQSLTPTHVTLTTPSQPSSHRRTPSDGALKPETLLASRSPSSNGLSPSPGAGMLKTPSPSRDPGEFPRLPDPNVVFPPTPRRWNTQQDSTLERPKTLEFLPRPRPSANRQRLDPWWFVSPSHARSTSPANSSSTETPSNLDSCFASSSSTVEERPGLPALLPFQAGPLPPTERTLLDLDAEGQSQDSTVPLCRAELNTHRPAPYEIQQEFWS

[18] = molecular target: T18, 382 unique human kinases (Homo sapiens, UniProt P07949, S891A); conditions: RET (S891A), [ATP] 5 µM, compound 10 uM; for remaining activity at 10 µM: read-out: % Enzyme Activity (relative to DMSO controls)
T18 construct: purchased Reaction Biology (HotSpot contract assay)

[19] = molecular target: T19, 382 unique human kinases (Homo sapiens, UniProt Q14680, T460M); conditions: MELK (T460M), [ATP] 20 µM, compound 10 uM; for remaining activity at 10 µM: read-out: % Enzyme Activity (relative to DMSO controls)
T19 construct: purchased Reaction Biology (HotSpot contract assay)

[20] = kinase CDK1/cyclin A, compound 10 uM
[21] = kinase CDK1/cyclin E, compound 10 uM
[22] = compound 10 uM, read-out: % Enzyme Activity (relative to DMSO controls)

T1 sequence (P10721 26-976 K642E): as the sequence (P10721 26-976) above, with K617E counted along it

SMILES | remaining activity at 10 µM [1] | remaining activity at 10 µM [2] | remaining activity at 10 µM [3] | remaining activity at 10 µM [4] | remaining activity at 10 µM [5] | remaining activity at 10 µM [6] | remaining activity at 10 µM [7] | remaining activity at 10 µM [8] | remaining activity at 10 µM ([9]; CDK1/cyclin B, 10 uM) | remaining activity at 10 µM [9, 20] | remaining activity at 10 µM [9, 21] | remaining activity at 10 µM [10] | remaining activity at 10 µM [11] | remaining activity at 10 µM [12, 22] | remaining activity at 10 µM [13] | remaining activity at 10 µM [14] | remaining activity at 10 µM [15] | remaining activity at 10 µM [16] | remaining activity at 10 µM [17] | remaining activity at 10 µM [18] | further results
CC(C)c1cc(-c2n[nH]c(=O)n2-c2ccc3c(ccn3C)c2)c(O)cc1O [Ganetespib (STA9090)] | 85.5% | 92.2% | 67.1% | 80.8% | 73.6% | 67.9% | 86.2% | 112% | 78.5% | 83.4% | 81.7% | 85.9% |  |  |  |  |  |  |  |  | 
CC(C)c1cc(-c2n[nH]c(=O)n2-c2ccc3c(ccn3C)c2)c(O)cc1O [Ganetespib] |  |  |  |  |  |  |  |  |  |  |  |  | 65% | 4.64% | 110% | 109% | 107% | 35% | 92.1% | 20.2% | remaining activity at 1 µM ([12]; compound 1 uM, read-out: % Enzyme Activity (relative to DMSO controls)): 70.2%; remaining activity at 10 µM [19]: 43.6%
CCNC(=O)c1noc(-c2cc(C(C)C)c(O)cc2O)c1-c1ccc(CN2CCOCC2)cc1 [Luminespib] |  |  |  |  |  |  |  |  |  |  |  |  | 43.2% | 81.2% | 99.4% | 93.8% | 95.4% | 90.7% | 103% | 89.3% | % Enzyme Activity (relative to DMSO controls) [11]: 41.81%; % Enzyme Activity (relative to DMSO controls) ([12]; compound 10 uM): 80.93%; % Enzyme Activity (relative to DMSO controls) [13]: 97.43%; % Enzyme Activity (relative to DMSO controls) [14]: 93.07%; % Enzyme Activity (relative to DMSO controls) [15]: 94.17%; % Enzyme Activity (relative to DMSO controls) [16]: 89.97%; % Enzyme Activity (relative to DMSO controls) [17]: 102.58%; % Enzyme Activity (relative to DMSO controls) [18]: 88.26%; % Enzyme Activity (relative to DMSO controls) [19]: 72.49%; remaining activity at 10 µM [19]: 74.9%
CCNC(=O)c1noc(-c2cc(C(C)C)c(O)cc2O)c1-c1ccc(CN2CCOCC2)cc1 [Luminespib (AUY-922)] | 82.3% | 101% | 94.8% | 72.9% | 95.8% | 91.5% | 101% | 110% | 86.8% | 97.5% | 113% | 107% |  |  |  |  |  |  |  |  | % Enzyme Activity (relative to DMSO controls) [1]: 81.47%; % Enzyme Activity (relative to DMSO controls) [2]: 98.95%; % Enzyme Activity (relative to DMSO controls) [3]: 94.13%; % Enzyme Activity (relative to DMSO controls) [4]: 72.90%; % Enzyme Activity (relative to DMSO controls) [5]: 95.48%; % Enzyme Activity (relative to DMSO controls) [6]: 91.06%; % Enzyme Activity (relative to DMSO controls) [7]: 100.18%; % Enzyme Activity (relative to DMSO controls) [8]: 104.63%; % Enzyme Activity (relative to DMSO controls) ([9]; CDK1/cyclin B, 10 uM): 86.64%; % Enzyme Activity (relative to DMSO controls) [9, 20]: 96.86%; % Enzyme Activity (relative to DMSO controls) [9, 21]: 108.79%; % Enzyme Activity (relative to DMSO controls) [10]: 105.45%
